Results on two compounds are retold here after US4632925A, “N-substituted diphenylpiperidines and antiobesity use thereof” (Hoffmann-La Roche Inc., priority 1985, dated 1986).

Each structure is given as a SMILES string.

The subject of test [1] is isolated perfused rat pancreas (insulin secretion). Nature of the test: Insulin-secretory activity in the isolated perfused rat pancreas. Also noted: species or system rat (female Charles River). The following applies: 50 μM; 16.7 mM glucose; index > 1 indicates suppression of insulin secretion. The method, then: DETERMINATION OF INSULIN-SECRETORY ACTIVITY IN THE ISOLATED PERFUSED RAT PANCREAS
Pancreases were obtained from young adult female Charles River rats weighing from 200-300 g. The animals were anesthesized with sodium pentobarbitol (45 mg/kg), injected intraperitoneally, and the pancreas with its intact vasculature was removed and connected to an extracorporeal perfusion apparatus.
The basic perfusion solution contained: 133 mM NaCl, 4.4 mM KCl, 2.5 mM MgSO4, 2.4 mM Ca gluconate, 1.5 mM KH2 PO4, 29.4 mM HaHCO3, 4% dextran and 0.2% bovine serum albumin and glucose as discussed below. The perfusion flow rate was kept constant at 4 ml/min. After a 15-20 minute equilibration period, the experimental protocol was begun. The pancreatic effluent was collected in either one or four-minute fractions.
The perfusion was run in the following sequence for each test compounds:
30 min 16.7 mM glucose--internal control
30 min 16.7 mM glucose and test compound
10 min 16.7 mM glucose--to check pancreas viability
The perfusion for the nontreated pancreas preparation was run as above, except that the test compound was omitted and replaced with perfusion solution.
Test compounds were dissolved in 90% ethanol or dimethylsulfoxide to a concentration of 25 mM and then diluted in the perfusion buffer to the desired concentration. The perfusion effluent was collected in one or four minute fractions--the samples were checked immediately, aliquoted for submission to radioimmunoassay and stored at -20° C. until the time of assay. The radioimmunoassay of insulin was carried out by a back-titration method using a pure rat insulin standard.
To assess the inhibitory activity of the test compounds, an inhibition index was calculated. The inhibition index is derived by comparing the insulin secretion response from treated versus nontreated pancreas preparations. For each preparation, a ratio of insulin secretion was calculated from the area under the insulin secretion curve of the first pulse of 16.7 mM glucose divided by the area under the curve of the second pulse of 16.7 mM glucose containing compound.

A short description of test [2]: Glucose clearance: acute in vivo model. The following applies: Rattus norvegicus, po, 0.5 h; 100 mg/kg intragastric, 30 min before i.p. glucose 1 g/kg; circulating glucose at 30 min; >100% indicates activity. Also on record: species or system Sprague-Dawley rats. The method, then: GLUCOSE CLEARANCE: ACUTE IN VIVO MODEL
The rationale for this test is that compounds which suppress insulin secretion should increase circulating glucose levels above those observed in controls following the administration of a high glucose load. Sprague-Dawley rats which range in weight from 150 to 180 grams after an overnight fast of 16 or 18 hours are given the test compound (100 mg/kg body weight) by intragastric administration 30 minutes before the intraperitoneal administration of glucose (1 g/kg body weight). Circulating glucose levels are determined immediately before glucose administration and 30, 60 and 90 minutes after glucose administration. Active compounds increase circulating glucose levels compared to controls. Since glucose levels peak at 30 minutes following glucose administration, the difference in circulating glucose levels between controls and treated rats at 30 minutes is used as an index of activity. The data are expressed as percent of control.

Test [3] in a line: Antiobesity effects in obese Zucker rats. The format is in vivo, genetically obese male Zucker rats. The following applies: for Circulating Insulin: last day of treatment. The method, then: ANTIOBESITY EFFECTS IN OBESE ZUCKER RATS
Genetically Obese Male Zucker rats were kept in temperature (22° C.) and light (12 hours light-dark cycle) regulated rooms. One week prior to the start of the experiment, the rats were transferred to individual wirebottomed cages and trained to eat a powdered chow diet (Ralston Purina Co., St. Louis, Mo.) ad libitum.
At the beginning of the experiment, the control group contributed to eat the chow diet and the experimental animals were given a chow diet containing drug. The amount of drug administered was calculated from the food intake per kg body weight for each experimental group. The age of the rats at the start of the drug treatment was two to three months. The period of treatment was 28 to 64 days. Food intake and body weights were recorded periodically (once each day to twice a week) throughout the duration of the study. Plasma samples for insulin and glucose determinations were taken from clipped tails. Carcass composition was determined at the end of the treatment period and, or comparative purposes, prior to the start of treatment.

The nature of test [4]: Antiobesity effects in obese Zucker rats. As to conditions: 14 days. It counts as in vivo, genetically obese male Zucker rats.

For `C(=C(c1ccccc1)c1ccccc1)C1CCN(CCCCCCCCc2cccnc2)CC1` [Example 25, 3-[8-[4-(2,2-diphenylethenyl)-1-piperidinyl]octyl]pyridine], the “Perfused Pancreas Inhibition Index” value in test [1] came to 38. The response vs control in vivo at 100 mg/kg in test [2] is 127%. Also, the “Body Weight Gain (treated minus control)” value is listed as “+9 g” in test [3] (9 mg/kg, 28 days); -16 g in test [3] (17 mg/kg, 28 days); -32 g in test [3] (24 mg/kg, 28 days, * p < 0.05); -88 g in test [3] (28 mg/kg, 64 days, * p < 0.05); -55 g in test [3] (34 mg/kg, 28 days, * p < 0.05); -49 g in test [4] (38 mg/kg, marked *). Moreover, the “Food Intake” value in test [3] (9 mg/kg, 28 days) is 91 % of control; in test [3] (17 mg/kg, 28 days) it was 89 % of control; in test [3] (24 mg/kg, 28 days, * p < 0.05), 82 % of control; in test [3] (28 mg/kg, 64 days, * p < 0.05), 81 % of control; in test [3] (34 mg/kg, 28 days, * p < 0.05), 83 % of control; in test [3] (38 mg/kg, 14 days, marked *), 73 % of control. The Food Intake entry in test [3] (28 days of treatment, in words) is given as “dose dependent decrease”. Moreover, the “Circulating Insulin” value in test [3] (9 mg/kg, 28 days) was 83 % of control; in test [3] (17 mg/kg, 28 days), 76 % of control; in test [3] (24 mg/kg, 28 days, * p < 0.05), 47 % of control; in test [3] (28 mg/kg, 64 days, * p < 0.05), 47 % of control; in test [3] (34 mg/kg, 28 days, * p < 0.05), 33 % of control. Besides, the “Carcass Lipid Difference (treated minus control)” value in test [3] (28 mg/kg, 64 days, * p < 0.05) is reported as -62 g. Besides, the “Relative Body Weight Gain Index” value in test [3] (38 mg/kg, 14 days, gain / days / dose (g/kg)) turned out to be 92. In addition, the body weight result is listed as “dose dependent decrease in body weight” in test [3] (28 days of treatment, in words) and “Reduced body weight” in test [3] (64 days, in words). Besides, in test [3] (28 days of treatment, in words), the insulin levels entry is reported as “dose dependent decrease”. For the same compound, the carcass lipid entry in test [3] (64 days, in words) is on record as “decreased carcass lipid”. Besides, in test [3] (treatment of obese rats, in words), the Glucose levels result is listed as “unaltered by treatment”.

On to `O=C(CCCCCCCCc1cccnc1)N1CCC(C=C(c2ccccc2)c2ccccc2)CC1` [Example 30, 4-(2,2-Diphenylethenyl)-1-[1-oxo-9-(3-pyridinyl)nonyl]piperidine], for which the “Perfused Pancreas Inhibition Index” value in test [1] was 1.4. Further, in test [2], the response vs control in vivo at 100 mg/kg stood at 100%. In test [3] (49 mg/kg, 14 days), the “Body Weight Gain (treated minus control)” value is given as -12 g and the “Food Intake” value is given as 100 % of control. In test [4] (49 mg/kg, gain / days / dose (g/kg)), the “Relative Body Weight Gain Index” value is 17.
